Earlier results, collected in patent US20250026710A1, “PROCESS FOR PREPARING A BENZOATE SALT OF A 1-(3-AMINOPYRROLIDINE-1-CARBONYL)-3,4-DIPHENYLBENZENE COMPOUND” (Astex Pharmaceuticals, Inc., priority 2021, published 2025).
Counter-ions that a name gives are not always drawn.

Experiments:
[1] = rats, dose 32 mg/5 mL/kg; listed as benzoic acid salt of Compound (A)
[2] = under the tested conditions of WO 2021/095835

Cmax [1]: 2680 nM | Tmax [1]: 2.7 h
Structure (SMILES): CC(C)(O)Cc1ccc(-c2ccc(C(=O)N3CC[C@H](N)C3)cc2-c2ccc(C#N)c(F)c2)c(F)c1 [benzoate salt of Compound (A)]
solid stability [2]: superior solid stability and maintains its purity up to four weeks
